We go through six compounds from patent US12723063B2, “GIPR-agonist compounds” (Eli Lilly and Company, priority 2019, dated 2026).

The structures appear in SMILES notation. *1 amine or outer side, *2 acyl side, *3 side chain or, on linkers, in order; H or OH if unused. Where a SMILES comes first, the peptide text is derived from it. Side-chain parts run from the residue outwards. [ ]: non-standard residue; d: D form. The star is where a group is joined. C20 diacid = O=C(O)CCCCCCCCCCCCCCCCCCC(=O)*; C18 diacid = O=C(O)CCCCCCCCCCCCCCCCC(=O)*; αMePhe(2-F) = C[C@](N)(Cc1ccccc1F)C(=O)O; γGlu = O=C(O)[C@H](CCC(=O)[*:2])N[*:1]; αMeY = C[C@](N)(Cc1ccc(O)cc1)C(=O)O; 4Pal = N[C@@H](Cc1ccncc1)C(=O)O; αMeL = CC(C)C[C@](C)(N)C(=O)O; AEEA = NCCOCCOCC(=O)O; Aib = CC(C)(N)C(=O)O

The target in one assay is T1, human GcgR (Homo sapiens, UniProt P47871).
T1 construct: expressed in transfected cells; crude membranes
In words: [125I]-Glucagon binding, SPA with WGA beads, 0.1% bacitracin. Particulars: geometric mean, read-out: hGcgR Ki. In a few lines:
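SPA competition binding with WGA beads on crude membranes from HEK293 cells stably expressing hGcgR. Buffer: 25 mM HEPES pH 7.4, 2.5 mM CaCl2, 1 mM MgCl2, 0.1% bacitracin, 0.003% Tween-20; 10-point 3-fold dilutions, NSB with 1 μM Gcg.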

In another assay the target is T2, human GIPR (Homo sapiens, UniProt P48546).
T2 construct: expressed in transfected cells; crude membranes
T2 sequence (P48546 22-466): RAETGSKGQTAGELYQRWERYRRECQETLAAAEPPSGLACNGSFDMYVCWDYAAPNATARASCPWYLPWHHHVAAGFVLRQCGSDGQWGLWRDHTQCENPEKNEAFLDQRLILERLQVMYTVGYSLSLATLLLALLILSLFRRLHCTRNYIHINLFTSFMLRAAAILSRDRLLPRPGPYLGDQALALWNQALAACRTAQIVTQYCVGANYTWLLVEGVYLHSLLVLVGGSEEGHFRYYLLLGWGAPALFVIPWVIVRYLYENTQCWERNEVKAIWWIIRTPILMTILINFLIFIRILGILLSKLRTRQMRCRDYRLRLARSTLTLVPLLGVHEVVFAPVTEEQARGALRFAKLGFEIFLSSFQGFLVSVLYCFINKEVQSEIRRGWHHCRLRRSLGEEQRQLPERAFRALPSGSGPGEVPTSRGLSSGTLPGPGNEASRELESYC
As to the kind of experiment: [125I]-GIP binding, SPA with WGA beads, 0.1% bacitracin. As to conditions: geometric mean, read-out: hGIPR Ki. In a few lines:
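Ki values are geometric means (SEM, n independent days), derived from four-parameter nonlinear regression of IC50. Membranes came from hGIPR-expressing CHO cells.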

Another assay has as its target T3, human GLP-1R (Homo sapiens, UniProt P43220).
T3 construct: expressed in transfected cells; crude membranes
In words: [125I]-GLP-1 binding, SPA with WGA beads, 0.1% bacitracin. As to conditions: geometric mean, read-out: hGLP1R Ki. In a few lines: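 Binding buffer was 25 mM HEPES pH 7.4 with 2.5 mM CaCl2, 1 mM MgCl2, 0.1% (w/v) bacitracin, 0.003% Tween-20 and EDTA-free protease inhibitors. Four-parameter regression gave IC50, converted to Ki (geometric mean, SEM, n independent days).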

T3 sequence (P43220 24-463): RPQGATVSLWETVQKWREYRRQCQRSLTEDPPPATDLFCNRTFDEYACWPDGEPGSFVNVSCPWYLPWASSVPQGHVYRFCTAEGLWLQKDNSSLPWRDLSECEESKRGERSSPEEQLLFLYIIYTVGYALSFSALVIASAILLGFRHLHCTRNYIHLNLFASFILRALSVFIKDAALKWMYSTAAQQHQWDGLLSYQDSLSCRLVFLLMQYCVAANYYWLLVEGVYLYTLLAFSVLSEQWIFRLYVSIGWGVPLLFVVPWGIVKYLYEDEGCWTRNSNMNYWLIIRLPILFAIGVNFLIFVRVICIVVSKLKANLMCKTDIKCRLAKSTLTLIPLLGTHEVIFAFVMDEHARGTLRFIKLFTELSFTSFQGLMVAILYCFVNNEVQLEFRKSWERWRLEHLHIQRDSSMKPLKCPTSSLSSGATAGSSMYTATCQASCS
T1 sequence (P47871 26-477): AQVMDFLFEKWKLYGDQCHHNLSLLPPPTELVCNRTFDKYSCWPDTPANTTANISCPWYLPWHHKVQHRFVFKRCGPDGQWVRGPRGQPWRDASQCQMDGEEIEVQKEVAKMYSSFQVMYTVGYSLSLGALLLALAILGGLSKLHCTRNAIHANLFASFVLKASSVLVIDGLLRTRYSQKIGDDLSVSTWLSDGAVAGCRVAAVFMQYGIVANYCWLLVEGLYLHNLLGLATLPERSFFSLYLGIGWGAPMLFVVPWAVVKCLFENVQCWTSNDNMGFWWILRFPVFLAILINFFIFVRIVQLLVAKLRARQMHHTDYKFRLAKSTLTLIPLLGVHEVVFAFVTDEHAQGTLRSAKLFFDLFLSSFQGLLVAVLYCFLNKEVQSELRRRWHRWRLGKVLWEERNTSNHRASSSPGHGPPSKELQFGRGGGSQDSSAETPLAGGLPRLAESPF

As to `CC[C@H](C)[C@H](NC(=O)[C@H](CO)NC(=O)[C@H](Cc1ccc(O)cc1)NC(=O)[C@H](CC(=O)O)NC(=O)[C@H](CO)NC(=O)[C@@H](NC(=O)[C@H](Cc1ccccc1)NC(=O)[C@@H](NC(=O)CNC(=O)[C@H](CCC(=O)O)NC(=O)C(C)(C)NC(=O)[C@@H](N)Cc1ccc(O)cc1)[C@@H](C)O)[C@@H](C)CC)C(=O)N[C@@H](C)C(=O)N[C@@H](CC(C)C)C(=O)N[C@@H](CC(=O)O)C(=O)N[C@@H](CCCCN)C(=O)N[C@@H](CCCCNC(=O)COCCOCCNC(=O)COCCOCCNC(=O)CC[C@H](NC(=O)CCCCCCCCCCCCCCCCC(=O)O)C(=O)O)C(=O)N[C@@H](Cc1c[nH]cn1)C(=O)N[C@@H](CCC(N)=O)C(=O)NC(C)(C)C(=O)N[C@@H](CC(=O)O)C(=O)N[C@@H](Cc1ccccc1)C(=O)N[C@H](C(=O)N[C@@H](CCC(=O)O)C(=O)N[C@@H](Cc1ccncc1)C(=O)N[C@@H](CC(C)C)C(=O)N[C@@H](CC(C)C)C(=O)N[C@@H](C)C(=O)NCC(=O)NCC(=O)N1CCC[C@H]1C(=O)N[C@@H](CO)C(=O)N[C@@H](CO)C(=O)NCC(=O)N[C@@H](C)C(=O)N1CCC[C@H]1C(=O)N1CCC[C@H]1C(=O)N1CCC[C@H]1C(=O)N[C@@H](CO)C(N)=O)C(C)C` [Example 21] (H-Y[Aib]EGTFISDYSIALDKK([AEEA-AEEA-γGlu-C18 diacid])HQ[Aib]DFVE[4Pal]LLAGGPSSGAPPPS-NH2), the values for the Ki at human GcgR, at human GIPR and on human GLP-1R were more than 1530 nM, 1.46 nM and 801 nM, respectively.
Consider `CC[C@H](C)[C@H](NC(=O)[C@H](Cc1ccccc1)NC(=O)[C@@H](NC(=O)CNC(=O)[C@H](CCC(=O)O)NC(=O)C(C)(C)NC(=O)[C@@H](N)Cc1ccc(O)cc1)[C@@H](C)O)C(=O)N[C@@H](CO)C(=O)N[C@@H](CC(=O)O)C(=O)N[C@@H](Cc1ccc(O)cc1)C(=O)N[C@@H](CO)C(=O)N[C@H](C(=O)N[C@@](C)(CC(C)C)C(=O)N[C@@H](CC(C)C)C(=O)N[C@@H](CC(=O)O)C(=O)N[C@@H](CCCCN)C(=O)N[C@@H](CCCCNC(=O)COCCOCCNC(=O)COCCOCCNC(=O)CC[C@H](NC(=O)CCCCCCCCCCCCCCCCCCC(=O)O)C(=O)O)C(=O)N[C@@H](Cc1c[nH]cn1)C(=O)N[C@@H](CCC(N)=O)C(=O)NC(C)(C)C(=O)N[C@@H](CC(=O)O)C(=O)N[C@@H](Cc1ccccc1)C(=O)N[C@H](C(=O)N[C@@H](CCC(=O)O)C(=O)N[C@@](C)(Cc1ccc(O)cc1)C(=O)N[C@@H](CC(C)C)C(=O)N[C@@H](CC(C)C)C(=O)N[C@@H](CCC(=O)O)C(=O)NCC(=O)NCC(=O)N1CCC[C@H]1C(=O)N[C@@H](CO)C(=O)N[C@@H](CO)C(=O)NCC(=O)N[C@@H](C)C(=O)N1CCC[C@H]1C(=O)N1CCC[C@H]1C(=O)N1CCC[C@H]1C(=O)N[C@@H](CO)C(N)=O)C(C)C)[C@@H](C)CC` [Example 91] (H-Y[Aib]EGTFISDYSI[αMeL]LDKK([AEEA-AEEA-γGlu-C20 diacid])HQ[Aib]DFVE[αMeY]LLEGGPSSGAPPPS-NH2), for which the results for the Ki at human GcgR, on human GIPR and on human GLP-1R were 54.4 nM, 0.122 nM and 37.4 nM, respectively.
Regarding `CC[C@H](C)[C@H](NC(=O)[C@H](CCCCN)NC(=O)[C@H](CC(=O)O)NC(=O)[C@H](CC(C)C)NC(=O)[C@](C)(CC(C)C)NC(=O)[C@@H](NC(=O)[C@H](CO)NC(=O)[C@H](Cc1ccc(O)cc1)NC(=O)[C@H](CC(=O)O)NC(=O)[C@H](CO)NC(=O)[C@@H](NC(=O)[C@H](Cc1ccccc1)NC(=O)[C@@H](NC(=O)CNC(=O)[C@H](CCC(=O)O)NC(=O)C(C)(C)NC(=O)[C@@H](N)Cc1ccc(O)cc1)[C@@H](C)O)[C@@H](C)CC)[C@@H](C)CC)C(=O)N[C@@H](Cc1c[nH]cn1)C(=O)N[C@@H](CCC(N)=O)C(=O)NC(C)(C)C(=O)N[C@@H](CCC(=O)O)C(=O)N[C@@H](Cc1ccccc1)C(=O)N[C@H](C(=O)N[C@@H](CCC(=O)O)C(=O)N[C@@H](Cc1ccncc1)C(=O)N[C@@H](CCCCNC(=O)COCCOCCNC(=O)COCCOCCNC(=O)CC[C@H](NC(=O)CCCCCCCCCCCCCCCCCCC(=O)O)C(=O)O)C(=O)N[C@@H](CC(C)C)C(=O)N[C@@H](CCC(=O)O)C(=O)NCC(=O)NCC(=O)N1CCC[C@H]1C(=O)N[C@@H](CO)C(=O)N[C@@H](CO)C(=O)NCC(=O)N[C@@H](C)C(=O)N1CCC[C@H]1C(=O)N1CCC[C@H]1C(=O)N1CCC[C@H]1C(=O)N[C@@H](CO)C(N)=O)C(C)C` [Example 100] (H-Y[Aib]EGTFISDYSI[αMeL]LDKIHQ[Aib]EFVE[4Pal]K([AEEA-AEEA-γGlu-C20 diacid])LEGGPSSGAPPPS-NH2), the figures for the Ki at human GcgR, on human GIPR and on human GLP-1R were 572 nM, 0.0674 nM and more than 913 nM, respectively.
With `CC[C@H](C)[C@H](NC(=O)[C@H](CCCN)NC(=O)[C@H](CC(=O)O)NC(=O)[C@H](CC(C)C)NC(=O)[C@](C)(CC(C)C)NC(=O)[C@@H](NC(=O)[C@H](CO)NC(=O)[C@H](Cc1ccc(O)cc1)NC(=O)[C@H](CC(=O)O)NC(=O)[C@H](CO)NC(=O)[C@@H](NC(=O)[C@H](Cc1ccccc1)NC(=O)[C@@H](NC(=O)CNC(=O)[C@H](CCC(=O)O)NC(=O)C(C)(C)NC(=O)[C@@H](N)Cc1ccc(O)cc1)[C@@H](C)O)[C@@H](C)CC)[C@@H](C)CC)C(=O)N[C@@H](Cc1c[nH]cn1)C(=O)N[C@@H](CCC(N)=O)C(=O)NC(C)(C)C(=O)N[C@@H](CC(=O)O)C(=O)N[C@@H](Cc1ccccc1)C(=O)N[C@H](C(=O)N[C@H](CCC(=O)O)C(=O)N[C@@H](Cc1ccc(O)cc1)C(=O)N[C@@H](CCCCNC(=O)COCCOCCNC(=O)COCCOCCNC(=O)CC[C@H](NC(=O)CCCCCCCCCCCCCCCCCCC(=O)O)C(=O)O)C(=O)N[C@@H](CC(C)C)C(=O)N[C@@H](CCC(=O)O)C(=O)NCC(=O)NCC(=O)N1CCC[C@H]1C(=O)N[C@@H](CO)C(=O)N[C@@H](CO)C(=O)NCC(=O)N[C@@H](C)C(=O)N1CCC[C@H]1C(=O)N1CCC[C@H]1C(=O)N1CCC[C@H]1C(=O)N[C@@H](CO)C(N)=O)C(C)C` [Example 101], the inhibition constant Ki at human GcgR was more than 961 nM; at human GIPR, 0.139 nM; at human GLP-1R it was more than 913 nM.
The like results for `CC[C@H](C)[C@H](NC(=O)[C@H](CCCCN)NC(=O)[C@H](CC(=O)O)NC(=O)[C@H](CC(C)C)NC(=O)[C@](C)(CC(C)C)NC(=O)[C@@H](NC(=O)[C@H](CO)NC(=O)[C@H](Cc1ccc(O)cc1)NC(=O)[C@H](CC(=O)O)NC(=O)[C@H](CO)NC(=O)[C@@H](NC(=O)[C@H](Cc1ccccc1)NC(=O)[C@@H](NC(=O)CNC(=O)[C@H](CCC(=O)O)NC(=O)C(C)(C)NC(=O)[C@@H](N)Cc1ccc(O)cc1)[C@@H](C)O)[C@@H](C)CC)[C@@H](C)CC)C(=O)N[C@@H](Cc1c[nH]cn1)C(=O)N[C@@H](CCC(N)=O)C(=O)NC(C)(C)C(=O)N[C@@H](CC(=O)O)C(=O)N[C@@H](Cc1ccccc1)C(=O)N[C@H](C(=O)N[C@@H](CCC(=O)O)C(=O)N[C@@H](Cc1ccc(O)cc1)C(=O)N[C@@H](CCCCNC(=O)COCCOCCNC(=O)COCCOCCNC(=O)CC[C@H](NC(=O)CCCCCCCCCCCCCCCCCCC(=O)O)C(=O)O)C(=O)N[C@@H](CC(C)C)C(=O)N[C@@H](CCC(=O)O)C(=O)N[C@@H](C)C(=O)NCC(=O)N1CCC[C@H]1C(=O)N[C@@H](CO)C(=O)N[C@@H](CO)C(=O)NCC(=O)N[C@@H](C)C(=O)N1CCC[C@H]1C(=O)N1CCC[C@H]1C(=O)N1CCC[C@H]1C(=O)N[C@@H](CO)C(N)=O)C(C)C` [Example 117] (H-Y[Aib]EGTFISDYSI[αMeL]LDKIHQ[Aib]DFVEYK([AEEA-AEEA-γGlu-C20 diacid])LEAGPSSGAPPPS-NH2) were, in that order, 685 nM, 0.0722 nM and 591 nM.
`CC[C@H](C)[C@H](NC(=O)[C@H](CO)NC(=O)[C@H](Cc1ccc(O)cc1)NC(=O)[C@H](CC(=O)O)NC(=O)[C@H](CO)NC(=O)[C@@H](NC(=O)[C@](C)(Cc1ccccc1F)NC(=O)[C@@H](NC(=O)CNC(=O)[C@H](CCC(=O)O)NC(=O)C(C)(C)NC(=O)[C@@H](N)Cc1ccc(O)cc1)[C@@H](C)O)[C@@H](C)CC)C(=O)N[C@@H](C)C(=O)N[C@@H](CC(C)C)C(=O)N[C@@H](CC(=O)O)C(=O)N[C@@H](CCCCN)C(=O)N[C@H](C(=O)N[C@@H](Cc1c[nH]cn1)C(=O)N[C@@H](CCC(N)=O)C(=O)NC(C)(C)C(=O)N[C@@H](CC(=O)O)C(=O)N[C@@H](Cc1ccccc1)C(=O)N[C@H](C(=O)N[C@@H](CCC(=O)O)C(=O)N[C@@H](Cc1ccncc1)C(=O)N[C@@H](CCCCNC(=O)COCCOCCNC(=O)COCCOCCNC(=O)CC[C@H](NC(=O)CCCCCCCCCCCCCCCCCCC(=O)O)C(=O)O)C(=O)N[C@@H](CC(C)C)C(=O)N[C@@H](CCC(=O)O)C(=O)NCC(=O)NCC(=O)N1CCC[C@H]1C(=O)N[C@@H](CO)C(=O)N[C@@H](CO)C(=O)NCC(=O)N[C@@H](C)C(=O)N1CCC[C@H]1C(=O)N1CCC[C@H]1C(=O)N1CCC[C@H]1C(=O)N[C@@H](CO)C(N)=O)C(C)C)[C@@H](C)CC` [Example 112] (H-Y[Aib]EGT[αMePhe(2-F)]ISDYSIALDKIHQ[Aib]DFVE[4Pal]K([AEEA-AEEA-γGlu-C20 diacid])LEGGPSSGAPPPS-NH2): the Ki on human GcgR was 257 nM; at human GIPR, 0.0742 nM; on human GLP-1R, more than 908 nM.
